Measurements reported in US7326825B2, “Methods of ungulate nuclear transfer” (Roslin Institute (Edinburgh), priority 1995, dated 2008).

Key:
[1] = tested on: enucleated oocytes fused to primary bovine fibroblasts; test: Pronuclear formation in enucleated oocytes fused to primary bovine fibroblasts and subsequently activated; format: cell-based; parameters: percentage of activated oocytes containing 1 PN / percentage of activated oocytes containing 2 PN / percentage of activated oocytes containing 3 PN / percentage of activated oocytes containing 4 PN / percentage of activated oocytes containing >4 PN: concentration or dose not given beside the values
ovine oocytes = test: Nuclei formation upon activation of reconstructed ovine oocytes matured in vivo; format: cell-based; conditions: donor cells introduced in the absence of activation
Protocol: Similar observations to those in Example 1 have also been made in ovine oocytes which have been matured in vivo. Freshly ovulated oocytes can be retrieved by flushing from the oviducts of superstimulated ewes 24 hours after prostaglandin treatment. The use of calcium magnesium free PBS/1.0% FCS as a flushing medium prevents oocyte activation. Oocytes can be enucleated in calcium free medium and donor cells introduced as above in the absence of activation. No organised spindle is observed, multiple nuclei are formed upon subsequent activation and this may be suppressed by nocodazole treatment.

[2] = nocodazole 1 hour prior to and 6 hours following activation, fused 24 hpm, activated 42 hpm, scored 12 hours post activation

## COC(=O)Nc1nc2ccc(C(=O)c3cccs3)cc2[nH]1 [nocodazole]
[1]; incubation of activated oocytes for 5 hours, 1 hour prior to and following the activation stimulus
  formation of micronuclei: prevents the formation of micronuclei
[1]; [2]
  percentage of activated oocytes containing 1 PN: 100%
  percentage of activated oocytes containing 2 PN: 0%
  percentage of activated oocytes containing 3 PN: 0%
  percentage of activated oocytes containing 4 PN: 0%
  percentage of activated oocytes containing >4 PN: 0%
Ovine oocytes
  formation of multiple nuclei upon subsequent activation: suppressed
